# Where two headings read alike, the source gives them in different places. Non-standard residues stand in square brackets, D forms with d. Residues, ends and D or L forms follow the SMILES beside them. αMeF = C[C@](N)(Cc1ccccc1)C(=O)O; Aib = CC(C)(N)C(=O)O
# Assays:
# [1] = male, Sprague-Dawley, rat, in vivo, sc, 20 mg/kg, 24 h
# Protocol: (§1) Four weeks after diabetes induction, three control or three STZ rats were used for the pharmacokinetics (PK) and the tissue distribution study. To this aim, rats received a single dose of UPARANT succinate dissolved in PBS (vehicle) at 20 mg/kg via subcutaneous injection according to a previous study.22 To investigate a possible therapeutic role of UPARANT, the drug was administered at 1 or 8 mg/kg daily for 5 days in 15 rats for each concentration used. […] Rats were killed with 65 mg/kg pentobarbital. Blood was collected in EDTA tubes to then isolate plasma by centrifugation and kidneys were removed.
# (§2) PK and UPARANT tissue distribution were as previously described.21 Briefly, for plasma PK, a volume of 0.2 mL blood was extracted at fixed time intervals (0.25, 0.5, 1, 2, 4, 6, 8, 12, 16 and 24 hours after dose) from the femoral vein. Blood was centrifuged (12 000 g for 20 minutes) and plasma was treated with 1% formic acid in methanol. Samples were stored at −80°C. The animals used for the PK study were killed at 24 hours. Kidneys and livers were dissected and processed with 1% formic acid in methanol. The concentration of UPARANT was evaluated via LC‐MS/MS.
# [2] = rat, in vivo, sc, 20 mg/kg
# Protocol: (§3) Four weeks after diabetes induction, three control or three STZ rats were used for the pharmacokinetics (PK) and the tissue distribution study. To this aim, rats received a single dose of UPARANT succinate dissolved in PBS (vehicle) at 20 mg/kg via subcutaneous injection according to a previous study.22 To investigate a possible therapeutic role of UPARANT, the drug was administered at 1 or 8 mg/kg daily for 5 days in 15 rats for each concentration used.
# (§4) PK and UPARANT tissue distribution were as previously described.21 Briefly, for plasma PK, a volume of 0.2 mL blood was extracted at fixed time intervals (0.25, 0.5, 1, 2, 4, 6, 8, 12, 16 and 24 hours after dose) from the femoral vein. Blood was centrifuged (12 000 g for 20 minutes) and plasma was treated with 1% formic acid in methanol. Samples were stored at −80°C. The animals used for the PK study were killed at 24 hours. […] The concentration of UPARANT was evaluated via LC‐MS/MS.
# (§5) A two phase model equation Ct = C0(e^-kelim^ t-e^-kabs^ t) with first order kinetics (absorption and elimination) was used to evaluate the kinetic parameters. Both C0 corresponding to the plasma concentration extrapolated at t=0 from the elimination phase and kelim and kabs, elimination and absorption kinetic parameters, were determined by best fit to the equation of the averaged time point concentrations. The terminal half-life t1/2 corresponding to 0.693/kelim and time tmax at the maximum plasma concentration Cmax were determined from the first derivative equal zero of the kinetic equation. The AUCinf, area under the concentration curve versus time from 0 to infinity was calculated by the integral of the kinetic equation.
# [3] = in vivo; details: male, Sprague-Dawley, rat, sc, 20 mg/kg
# Protocol: as §1, §2
# [4] = in vivo; details: male, Sprague-Dawley, rat, sc, 20 mg/kg; remark: listed apart in the source
# Protocol: as §3, §4, §5
structure (smiles),measurement,setting,value
"CC(=O)N[C@@H](CCCNC(=N)N)C(=O)NC(C)(C)C(=O)N[C@@H](CCCNC(=N)N)C(=O)N[C@@](C)(Cc1ccccc1)C(N)=O [UPARANT, Ac‐L‐Arg‐Aib‐L‐Arg‐L‐Cα(Me)PheNH2] (Ac-R[Aib]R[αMeF]-NH2)",concentration of UPARANT in the kidney,[1],28.2 ± 4.3 µg/g
same,concentration of UPARANT in the liver,[1],20.4 ± 7.5 µg/g
same,AUCinf,"[2]; male, Sprague-Dawley",16100 ng·h/mL
same,Cmax,"[2]; male, Sprague-Dawley",2300 ng/mL
same,tmax,"[2]; male, Sprague-Dawley",2.2 h
same,kabs,[2],0.6 ± 0.2 h⁻¹
same,t1/2,[2],2.2 h
same,tissue level at time at 24 h,[3]; concentration of UPARANT in the kidney,45900 ± 3600 ng/g
same,tissue level at time at 24 h,[3]; concentration of UPARANT in the liver,21100 ± 2400 ng/g
same,half-life,[4],2.2 h
same,AUC(0-inf),[4]; AUCinf,15900 ng·h/mL
same,Cmax,[4]; Cmax,2600 ng/mL
same,tmax,[4]; tmax,2.3 h

# Reference: PMC6349167, “Inhibiting the urokinase‐type plasminogen activator receptor system recovers STZ‐induced diabetic nephropathy” (Journal of Cellular and Molecular Medicine, 2018)
